# In patent US12410161B2, “Tetrahydrobenzo-quinoline sulfonamides derivative compounds” (UCB Biopharma SRL, priority 2019, dated 2025):
# Target: T1, IgE-Tb binding to soluble IgE receptor FcεRIα-Y131A-AF488 (Homo sapiens, UniProt P0DOX4, N265Q/N371Q)
# T1 construct: 86 nmoles of IgE-Fc(N265Q, N371Q) (Young et al., 1995)
# Assay: In vitro FRET assay of IgE-Tb binding to FcεRIα receptor (protocol for most examples, 2 hours incubation)
# Conditions: 5 nM IgE-Tb, 25 nM FcεRIα-Y131A-AF488; incubated 2 hours at room temperature; read-out: FRET IC50 range
# Description: In vitro Biochemical Assay: Protocol for preparation of IgE-Tb reagent 86 nmoles of […]) (Young et al., 1995) at 172 μM in 100 mM NaHCO3, pH 9.5 was added to 1 mg of LanthaScreenTM Amine Reactive Tb Chelate (ThermoFisher catalogue number PV3583) and incubated for 16 hours at 20° C. The material was then buffer exchanged into Phosphate Buffered Saline (being, 137 mM NaCl, 2.7 mM KCl, 10 mM Na2HPO4, 1.8 mM K2HPO4, pH 7.4) and the material quantified and the degree of Tb conjugation determined by measuring the absorption at 280 nm and 343 nm. The integrity of the conjugated material was determined by analytical size exclusion chromatography on a 5200 HR 10×300 column (GE Healthcare). Typical conjugation ratios were 4:1 Tb:IgE-Fc. • Young R J., Owens, […]., Chan C M W., Shi J., Hide […]., Henry A J., Sutton B J., and Gould H J (1995) Protein Engineering 8:193-199 Protocol for preparation of […] reagent […] Oxidation was quenched with the addition of 40 μl of ethanediol and incubation for 60 minutes at 22° C. The protein was buffer exchanged in to conjugation buffer (50 mM NaHCO3, 150 mM NaCl, pH 9.5) and concentrated to 750 μM. 175 nmoles of protein was added to 1 mg of Alexa FluorTM 488 hydrazide (Invitrogen) and incubated for 16 hours at 22° C. […] The protein was buffer exchanged into Phosphate Buffered Saline (being, 137 mM NaCl, 2.7 mM KCl, 10 mM Na2HPO4, 1.8 mM K2HPO4, pH 7.4) and the material quantified and the degree of Alexa FluorTM 488 conjugation determined by measuring the absorption at 280 nm and 495 nm. The integrity of the conjugated material was determined by analytical size exclusion chromatography on a 5200 HR 10×300 column (GE Healthcare). Typical conjugation ratios were 2:1 Alexa FluorTM488: sFcεR1α • Cook J P D., Henry […]., Owens R J., Sutton B J., and Gould H J (1997) Biochemistry 36:15579-15588 The aim was to measure binding of IgE-Tb to receptor, and the inhibition thereof by compounds, using an in vitro Fluorescence Resonance Energy Transfer (FRET) Assay. Reagents FRET reagents used were IgE labelled with Terbium (FRET donor), and soluble IgE receptor FcεRIα with a Y131A mutation, labelled with Alexa FluorTM 488 (FRET acceptor). Unlabelled FcεRIα was also used to generate a background control. The assay buffer consisted of 20 mM Tris pH7.2, 150 mM NaCl, and 0.002% Tween, 1% DMSO. Assay Reaction For most of the examples the assay was conducted according to the following: Each assay reaction was conducted in a volume of 25 μl in a 384-well half-volume plate. 10 point compound serial dilutions (3-fold) were generated in DMSO at a concentration of ×50 that of the final assay concentration (FAC). Compound solutions were then prepared by IgE-Tb diluting 10-fold in assay buffer. For the assay, 5 μl of diluted compound was added to 10 μl of IgE-Tb, followed by addition of 10111 FcεRIα-Y131A-AF488. FRET reagents FACs were 5 nM IgE-Tb, 25 nM FcεRIα-Y131A-AF488. Usually the top FAC of compound in the assay was 10 μM. The final DMSO concentration was 2%. The minimum signal (MIN) was measured by adding 5 μl unlabelled FcεRIα at 1 μM (FAC=200 nM) to the FRET reagents. The maximum FRET signal (MAX) was measured in wells containing FRET reagents but no compound. The assay was incubated for 2 hours at room temperature, protected from light and evaporation, and with gentle agitation. FRET Measurement Measurement of FRET for each well was carried out by exciting at 330 nm and measuring emission at 495/520 nm using an Envision plate reader (Perkin Elmer). FRET ratio was calculated as follows: Emission at 520/Emission at 495×1000. The FRET ratio was used for the data analysis. Data Analysis Z' was calculated as follows (σ=standard deviation and μ=mean): 1-((3×σMAX)+(3×σMIN))/(μMAX-/μMIN) Z' above 0.5 was considered a good assay. Background signal (MIN) was subtracted from all wells. Using the background subtracted values, the percent inhibition by compound in each test-well was calculated as follows: 100-Test-well FRET ratio/MAX FRET ratio×100. […]
# T1 sequence (P0DOX4 224-547 N265Q/N371Q limits assumed): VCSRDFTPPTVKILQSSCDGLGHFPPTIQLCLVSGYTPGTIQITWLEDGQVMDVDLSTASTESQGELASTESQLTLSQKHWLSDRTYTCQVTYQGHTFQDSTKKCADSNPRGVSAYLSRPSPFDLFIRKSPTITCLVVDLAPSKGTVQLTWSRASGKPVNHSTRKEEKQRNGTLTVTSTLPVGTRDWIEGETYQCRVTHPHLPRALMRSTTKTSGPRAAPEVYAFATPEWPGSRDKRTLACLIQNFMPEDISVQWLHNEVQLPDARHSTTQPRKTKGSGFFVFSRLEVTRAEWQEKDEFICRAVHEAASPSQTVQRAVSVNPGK
row,Structure (SMILES),IC50
1,"CC(C)CNS(=O)(=O)c1c2c(cc3cnc(C4CC4)cc13)CCC(C(=O)NCC(C)(C)C)C2 (centres unmarked) [Example 5, 3-cyclopropyl-N-(2,2-dimethylpropyl)-5-(2-methylpropylsulfamoyl)-6,7,8,9-tetrahydrobenzo[g]isoquinoline-7-carboxamide]",50 to 100 nM
2,"Cc1nnc(-c2ccc(N[C@H]3CCc4cc5cnc(C6CC6)cc5c(S(=O)(=O)NCC(C)C)c4C3)cn2)o1 [Example 18, (7S)-3-cyclopropyl-7-[[6-(5-methyl-1,3,4-oxadiazol-2-yl)pyridin-3-yl]amino]-N-(2-methylpropyl)-6,7,8,9-tetrahydrobenzo[g]isoquinoline-5-sulfonamide]",50 to 100 nM
3,"Cc1ccc(N/C(=N/C#N)NC2CCc3cc4cnc(C5CC5)cc4c(S(=O)(=O)NCC(C)(C)F)c3C2)cc1 (centres unmarked) [Example 3, 2-Cyano-1-[3-cyclopropyl-5-[(2-fluoro-2-methyl-propyl)sulfamoyl]-6,7,8,9-tetrahydrobenzo[g]isoquinolin-7-yl]-3-(p-tolyl)guanidine]",100 to 1000 nM
4,"CC(C)CNS(=O)(=O)c1c2c(cc3cnc(C4CC4)cc13)CCC(Nc1nncn1-c1cccnc1)C2 (centres unmarked) [Example 15, 3-cyclopropyl-N-(2-methylpropyl)-7-[(4-pyridin-3-yl-1,2,4-triazol-3-yl)amino]-6,7,8,9-tetrahydrobenzo[g]isoquinoline-5-sulfonamide]",100 to 1000 nM
5,"CC(C)CNS(=O)(=O)c1c2c(cc3cnc(C4CC4)cc13)CCC(C(=O)NCc1ccccc1)C2 (centres unmarked) [Example 8, N-benzyl-3-cyclopropyl-5-(2-methylpropylsulfamoyl)-6,7,8,9-tetrahydrobenzo[g]isoquinoline-7-carboxamide]",1 to 50 nM
6,"Cc1nnc(-c2ccc(NC3CCc4cc5cnc(C6CC6)cc5c(S(=O)(=O)NCC(C)(C)F)c4C3)cn2)o1 (centres unmarked) [Example 4, 3-cyclopropyl-N-(2-fluoro-2-methylpropyl)-7-[[6-(5-methyl-1,3,4-oxadiazol-2-yl)pyridin-3-yl]amino]-6,7,8,9-tetrahydrobenzo[g]isoquinoline-5-sulfonamide]",100 to 1000 nM
7,"CC(C)CNS(=O)(=O)c1c2c(cc3cnc(C4CC4)cc13)CC(c1ncc(-c3cccnc3)[nH]1)CC2 (centres unmarked) [Example 22, 3-cyclopropyl-N-(2-methylpropyl)-8-(5-pyridin-3-yl-1H-imidazol-2-yl)-6,7,8,9-tetrahydrobenzo[g]isoquinoline-5-sulfonamide]",100 to 1000 nM
8,"CC(C)CNS(=O)(=O)c1c2c(cc3cnc(C4CC4)cc13)CC(C(=O)NCC(C)(C)C)CC2 (centres unmarked) [Example 6, 3-cyclopropyl-N-(2,2-dimethylpropyl)-5-(2-methylpropylsulfamoyl)-6,7,8,9-tetrahydrobenzo[g]isoquinoline-8-carboxamide]",100 to 2000 nM
9,"Cc1cc(-n2cnnc2NC2CCc3c(cc4cnc(C5CC5)cc4c3S(=O)(=O)NCC(C)(C)F)C2)n(C)n1 (centres unmarked) [Example 24, 3-cyclopropyl-8-[[4-(2,5-dimethylpyrazol-3-yl)-1,2,4-triazol-3-yl]amino]-N-(2-fluoro-2-methyl-propyl)-6,7,8,9-tetrahydrobenzo[g]isoquinoline-5-sulfonamide formic acid]",100 to 2000 nM
10,"Cc1cc(-n2ccnc2NC2CCc3cc4cnc(C5CC5)cc4c(S(=O)(=O)NCC(C)C)c3C2)n(C)n1 (centres unmarked) [Example 20, 3-cyclopropyl-74(1-(2,5-dimethylpyrazol-3-yl)imidazol-2-yl]aminol-N-(2-methylpropyl)-6,7,8,9-tetrahydrobenzo[g]isoquinoline-5-sulfonamide]",100 to 1000 nM
11,"Cc1cc(Nc2nncn2C2CCc3cc4cnc(C5CC5)cc4c(S(=O)(=O)NCC(C)(C)F)c3C2)n(C)n1 (centres unmarked) [Example 2, 3-cyclopropyl-7-[3-[(2,5-dimethylpyrazol-3-yl)amino]-1,2,4-triazol-4-yl]-N-(2-fluoro-2-methylpropyl)-6,7,8,9-tetrahydrobenzo[g]isoquinoline-5-sulfonamide]",100 to 1000 nM
12,"CC(C)CNS(=O)(=O)c1c2c(cc3cnc(C4CC4)cc13)CCC(c1ncc(-c3cccnc3)[nH]1)C2 (centres unmarked) [Example 21, 3-cyclopropyl-N-(2-methylpropyl)-7-(5-pyridin-3-yl-1H-imidazol-2-yl)-6,7,8,9-tetrahydrobenzo[g]isoquinoline-5-sulfonamide]",1 to 50 nM
13,"Cc1cc(-n2cnnc2NC2CCc3cc4cnc(C5CC5)cc4c(S(=O)(=O)NCC(C)C)c3C2)n(C)n1 (centres unmarked) [Example 12, 3-cyclopropyl-7-[[4-(2,5-dimethylpyrazol-3-yl)-1,2,4-triazol-3-yl]amino]-N-(2-methylpropyl)-6,7,8,9-tetrahydrobenzo[g]isoquinoline-5-sulfonamide]",100 to 1000 nM
14,"CC(C)CNS(=O)(=O)c1c2c(cc3cnc(C4CC4)cc13)CCC(n1cnnc1Nc1cccnc1)C2 (centres unmarked) [Example 14, 3-cyclopropyl-N-(2-methylpropyl)-7-[3-(pyridin-3-ylamino)-1,2,4-triazol-4-yl]-6,7,8,9-tetrahydrobenzo[g]isoquinoline-5-sulfonamide]",1 to 50 nM
15,"Cc1ccc2c(C(=O)NC3CCc4cc5cnc(C6CC6)cc5c(S(=O)(=O)NCC(C)C)c4C3)c[nH]c2c1 (centres unmarked) [Example 11, N-[3-cyclopropyl-5-(2-methylpropylsulfamoyl)-6,7,8,9-tetrahydrobenzo[g]isoquinolin-7-yl]-6-methyl-1H-indole-3-carboxamide]",100 to 1000 nM
16,"Cc1cc(Nc2nncn2C2CCc3c(cc4cnc(C5CC5)cc4c3S(=O)(=O)NCC(C)(C)F)C2)n(C)n1 (centres unmarked) [Example 23, 3-cyclopropyl-8-[3-[(2,5-dimethylpyrazol-3-yl)amino]-1,2,4-triazol-4-yl]-N-(2-fluoro-2-methylpropyl)-6,7,8,9-tetrahydrobenzo[g]isoquinoline-5-sulfonamide]",100 to 2000 nM
17,"Cc1nnc(-c2ccc(N[C@@H]3CCc4cc5cnc(C6CC6)cc5c(S(=O)(=O)NCC(C)C)c4C3)cn2)o1 [Example 17, (7R)-3-cyclopropyl-7-[[6-(5-methyl-1,3,4-oxadiazol-2-yl)pyridin-3-yl]amino]-N-(2-methylpropyl)-6,7,8,9-tetrahydrobenzo[g]isoquinoline-5-sulfonamide]",100 to 1000 nM
18,"CC(C)CNS(=O)(=O)c1c2c(cc3cnc(C4CC4)cc13)CCC(n1cnnc1NCC1CC1)C2 (centres unmarked) [Example 16, 3-cyclopropyl-7-[3-(cyclopropylmethylamino)-1,2,4-triazol-4-yl]-N-(2-methylpropyl)-6,7,8,9-tetrahydrobenzo[g]isoquinoline-5-sulfonamide]",1 to 50 nM
19,"Cc1cc(Nc2nncn2C2CCc3cc4cnc(C5CC5)cc4c(S(=O)(=O)NCC(C)C)c3C2)n(C)n1 (centres unmarked) [Example 13, 3-cyclopropyl-7-[3-[(2,5-dimethylpyrazol-3-yl)amino]-1,2,4-triazol-4-yl]-N-(2-methylpropyl)-6,7,8,9-tetrahydrobenzo[g]isoquinoline-5-sulfonamide]",1 to 50 nM
20,"CC(C)CNS(=O)(=O)c1c2c(cc3cnc(C4CC4)cc13)CC(C(=O)NCc1ccccc1)CC2 (centres unmarked) [Example 7, N-benzyl-3-cyclopropyl-5-(2-methylpropylsulfamoyl)-6,7,8,9-tetrahydrobenzo[g]isoquinoline-8-carboxamide]",100 to 1000 nM
